According to patent US12059400B2, “Medical compound” (VERA SALUS RICERCA S.R.L., priority 2017, dated 2024):
Entries after “also recorded” stand apart in the source; their conditions may differ.

Columns and labels:
Type in all cases: cell-based
[1] = tested on: normal cells (human skin fibroblasts, WS1); assay: Apoptosis, acridine orange/ethidium bromide method; conditions: 2 hrs; Compound 2 40 μM, 5 40 μM, 4 40 μM, 3 60 μM, 1 80 μM; FIG. 18
[2] = tested on: human colon carcinoma cells (HCT116); assay: Cell cycle progression, propidium iodide method, cytofluorimeter; conditions: for halt of HCT116 tumour cells in S of the cell cycle: 24 hrs, at the respective anti-proliferative IC50s, FIG. 20
Method: (§1) Progression through the tumour cell cycle was assessed by the propidium iodide method and quantification of the cell DNA content with a cytofluorimeter. Briefly, after treatment (in duplicate) with the test compounds (24 hrs), the tumour cells were washed (with PBS), detached with trypsin-EDTA and pelleted by centrifugation (125 g for 6 min). The cells were then fixed in ethanol (70%) and stored in the freezer (−20° C.) for 1-3 days. After further washing (PBS) and treatment with RNAse (50 ug/ml), the cells were contacted (on ice in the dark; 30 min) with propidium iodide (50 μg/ml). FL2 and FL3 cytofluorimeter readings analysed approximately 50,000 cells (1 μl/second) per sample. Statistical analysis and graphical representation were performed by using t-tests and preset Excel property files.

[3] = tested on: human melanoma cells (A375); assay: as above; conditions: for halt of A375 tumour cells in S and/or G2 of the cell cycle: 24 hrs, at the respective anti-proliferative IC50s, FIG. 19
Method: as §1

[4] = tested on: human colon carcinoma cells (HCT116); assay: Intracellular ROS levels, DCFH2-DA probe; conditions: for intracellular ROS levels in HCT116 cells: 2 hrs of treatment, at the respective anti-proliferative IC50s, DCF fluorescence in A.U., FIG. 22 left
Method: Intracellular ROS levels were measured in tumour cells by using the probe 2,7-dichlorodihydrofluorescein diacetate (DCFH2-DA) and a fluorescence spectrophotometer. DCFH2-DA diffuses readily through the cell membrane into the cytosolic space of the cell where it is hydrolyzed by intracellular esterases into the non-permeable DCFH2 product. DCFH2 oxidation by intracellular ROS (mainly H2O2, HO·, ROO·, NO· and ONOO) results in the production of intracellular fluorescent DCF, whose concentration is directly proportional to the levels of ROS in the cell. […] All the experiments were repeated at least 3 times. Data analysis was carried out with GraphPad Prism 6 for graphical representation and statistical processing (1-way ANOVA test).

[5] = tested on: human mammary carcinoma cells (BT549); assay: Cell proliferation, crystal violet method; conditions: for BT549 cell growth vs vehicle control: 80 μM, FIG. 6a, 6b; for IC50: crystal violet, spectrophotometer, read-out: IC50 anti-proliferative effect, BRC - (BT549)
Method: (§2) The compound according to the invention, and in particular the synthetic quercetin derivatives described and illustrated herein were investigated in vitro by using human tumour cells and assessing their impact on the tumour proliferative capacity, with regard to the tumours described above. In particular, the following human tumour cell lines were assessed experimentally: 1) HCT116, colon adenocarcinoma cells; 2) H1299, lung adenocarcinoma cells; 3) A375, melanoma cells, and 4) A431, squamous skin cell carcinoma; 5) 786-0, renal carcinoma cells; 6) PC3, prostate carcinoma cells; 7) BT549, mammary carcinoma cells; 8) CAL27, tongue carcinoma cells (belonging to the head-and-neck carcinomas); 9) HepG2, hepatocellular carcinoma cells; 10) PANC-1, pancreas carcinoma cells; 11) T24, bladder carcinoma cells; 12) OVCAR-3, ovarian carcinoma cells. In addition, a normal human cell line, WS1 (skin fibroblasts) was also treated with the novel synthetic compounds.
(§3) Cell proliferation was quantified by the crystal violet method with a spectrophotometer. In short, after acquiring serial images (0, 24 and 48 hrs) with the EVOS XL Cell Imaging System microscope (Thermo Fisher Scientific), the cells imaged at 48 hrs were fixed with paraformaldehyde (4%) and stained with Crystal Violet (1%). Then, the specific absorbance (λ=590 nm) at 48 hrs was measured with a spectrophotometer (Infinite®200 PRO, Tecan). Data analysis was carried out by using ad-hoc Excel files for graphical representation and statistical processing (t-test). Moreover, the results obtained with Crystal Violet were confirmed by using another cell proliferation assessment method based on the real time cellular analyzer XCELLigence RTCA DP (ACEA Biosciences, Inc.). This tool allows cell growth to be monitored from electrical impedance-derived quantitative values (the so-called Cell Index) measured by tiny electrodes located at the base of the culture wells. Proliferation is monitored for several days (5-7) by setting a Cell Index per minute measure on the instrument. The data are analysed by processing various parameters calculated by the dedicated software, such as the cell duplication time, the slope and the Max Cell Index.
(§4) Cell proliferation was quantitated spectrophotometrically by the crystal violet method.

[6] = tested on: human colon carcinoma cells (HCT116); assay: Cell proliferation, crystal violet method; conditions: for IC50: crystal violet, spectrophotometer, read-out: IC50 anti-proliferative effect, CRC (HCT116); for HCT116 cell growth vs vehicle control: 100 μM, FIG. 3a, 3b, 13a, 13b
Method: as §2, §3, §4

[7] = tested on: human melanoma cells (A375); assay: Cell proliferation, crystal violet method; conditions: for IC50: crystal violet, spectrophotometer, read-out: IC50 anti-proliferative effect, Melanoma (A375); for growth of melanoma cells (A375) vs vehicle control: 60 μM, FIG. 1a, 1b
Method: as §2, §3, §4

[8] = tested on: human hepatocellular carcinoma cells (HepG2); assay: Cell proliferation, crystal violet method; conditions: for HepG2 tumour growth vs vehicle control: 80 μM, FIG. 8a, 8b; for IC50: crystal violet, spectrophotometer, read-out: IC50 anti-proliferative effect, HCC - HepG2
Method: as §2, §3, §4

[9] = tested on: human tongue carcinoma cells (Cal27); assay: Cell proliferation, crystal violet method; conditions: for Cal27 tumour growth vs vehicle control: 80 μM, FIG. 7a, 7b; for IC50: crystal violet, spectrophotometer, read-out: IC50 anti-proliferative effect, HNC - (Cal27)
Method: as §2, §3, §4

[10] = tested on: human ovarian carcinoma cells (OVCAR-3); assay: Cell proliferation, crystal violet method
Method: as §2, §3, §4

| IC50 [5] [µM] | IC50 [6] [µM] | IC50 [7] [µM] | IC50 [8] [µM] | IC50 [9] [µM] | IC50 ([10]; crystal violet, spectrophotometer, read-out: IC50 anti-proliferative effect, OCC - (OVCAR)) [µM] | Substance | induction of apoptosis in normal cells WS1 [1] | halt of HCT116 tumour cells in S of the cell cycle [2] | effect on the HCT116 cell cycle in presence of ROS scavenger NAC ([2]; Compound at its anti-proliferative IC50 + N-Acetyl Cysteine 10 mM, FIG. 21 left) | halt of A375 tumour cells in S and/or G2 of the cell cycle [3] | effect on the A375 cell cycle in presence of ROS scavenger NAC ([3]; Compound at its anti-proliferative IC50 + N-Acetyl Cysteine 10 mM, FIG. 21 right) | intracellular ROS levels in HCT116 cells [4] | intracellular ROS levels in HCT116 cells after pretreatment with NAC ([4]; pretreatment with N-Acetyl-L-Cysteine 10 mM, FIG. 22 right) | BT549 cell growth vs vehicle control [5] | HepG2 tumour growth vs vehicle control [8] | Cal27 tumour growth vs vehicle control [9] | HCT116 cell growth vs vehicle control [6] | growth of melanoma cells (A375) vs vehicle control [7] | OVCAR-3 cell growth vs vehicle control ([10]; 60 μM, FIG. 11a, 11b) |
| --- | --- | --- | --- | --- | --- | --- | --- | --- | --- | --- | --- | --- | --- | --- | --- | --- | --- | --- | --- |
| 46.5 | 28.8 | 16.4 | 106 | 19.7 | 79.2 | 2-(3,4-dihydroxyphenyl)-5,7-dihydroxy-4-oxo-4H-chromen-3-yl palmitate [Compound 5] | not in normal cells |  |  | significantly halt |  |  |  | significantly inhibit | significantly inhibit; also recorded: superior to that of quercetin | significantly inhibit; also recorded: superior to that of quercetin | significantly inhibit | significantly inhibit | significantly inhibit |
| 48.6 | 22.9 | 20.1 | 54.4 | 22.9 |  | 2-(3,4-dihydroxyphenyl)-5,7-dihydroxy-4-oxo-4H-chromen-3-yl acetate [Compound 4] | not in normal cells | significantly halt |  | significantly halt |  |  |  | significantly inhibit | significantly inhibit; also recorded: superior to that of quercetin | significantly inhibit | significantly inhibit | significantly inhibit |  |
| 119 | 59.8 | 48.1 | 50.2 | 36.7 |  | 2-(3,4-Dihydroxyphenyl)-3-hexadecyloxy-5,7-dihydroxy-4H-chromen-4-one [Compound 3] | not in normal cells | significantly halt |  | exception |  | significantly raise |  | significantly inhibit | significantly inhibit; also recorded: superior to that of quercetin | significantly inhibit | significantly inhibit |  |  |

Second part, the substance before the results:

| Substance | IC50 [5] [µM] | IC50 [6] [µM] | IC50 [7] [µM] | IC50 [8] [µM] | IC50 [9] [µM] | IC50 ([10]; crystal violet, spectrophotometer, read-out: IC50 anti-proliferative effect, OCC - (OVCAR)) [µM] | induction of apoptosis in normal cells WS1 [1] | halt of HCT116 tumour cells in S of the cell cycle [2] | effect on the HCT116 cell cycle in presence of ROS scavenger NAC ([2]; Compound at its anti-proliferative IC50 + N-Acetyl Cysteine 10 mM, FIG. 21 left) | halt of A375 tumour cells in S and/or G2 of the cell cycle [3] | effect on the A375 cell cycle in presence of ROS scavenger NAC ([3]; Compound at its anti-proliferative IC50 + N-Acetyl Cysteine 10 mM, FIG. 21 right) | intracellular ROS levels in HCT116 cells [4] | intracellular ROS levels in HCT116 cells after pretreatment with NAC ([4]; pretreatment with N-Acetyl-L-Cysteine 10 mM, FIG. 22 right) | BT549 cell growth vs vehicle control [5] | HepG2 tumour growth vs vehicle control [8] | Cal27 tumour growth vs vehicle control [9] | HCT116 cell growth vs vehicle control [6] | growth of melanoma cells (A375) vs vehicle control [7] | OVCAR-3 cell growth vs vehicle control ([10]; 60 μM, FIG. 11a, 11b) |
| --- | --- | --- | --- | --- | --- | --- | --- | --- | --- | --- | --- | --- | --- | --- | --- | --- | --- | --- | --- |
| 2-(3,4-Dihydroxyphenyl)-3-ethoxy-5,7-dihydroxy-4H-chromen-4-one [Compound 1] | 191 | 166 | 67.1 | 144 | 15.6 |  | not in normal cells | significantly halt | partly mediated by ROS | significantly halt | partly mediated by ROS | significantly raise | blocked | significantly inhibit | significantly inhibit | significantly inhibit |  |  |  |
| 2-(3,4-Dihydroxyphenyl)-3-hexyloxy-5,7-dihydroxy-4H-chromen-4-one [Compound 2] | 156 | 42.8 | 19.3 | 265 | 63.2 |  | not in normal cells |  |  | significantly halt |  | significantly raise |  | significantly inhibit | significantly inhibit | significantly inhibit | significantly inhibit | significantly inhibit |  |
